Measured values taken from patent US10391168B1, “Anti-CD70 combination therapy” (University of Bern, priority 2014, dated 2019).

Key:
[1] = system: conditional APC mutant mice; conditions: mouse, in vivo; cited from earlier work
[2] = system: colon carcinoma cells; conditions: cited from earlier work
[3] = system: Xenopus embryos; conditions: in vivo; cited from earlier work
[4] = system: DLD-1-cancer cells; conditions: colorectal adenocarcinoma derived; cited from earlier work
[5] = system: β-catenin; conditions: cited from earlier work
[6] = system: imatinib-resistant KBM5r cells (BCR-ABL1 T315I); assay: CD70, SP1, DNMT1 expression and viability in imatinib-resistant KBM5r cells; assay type: cell-based, human
Protocol: Specifically, 5×10^4 KBM5r cells were transduced overnight at 37° C. and 5% CO2 with 2×10^5 infectious units of shSP1 or the respective control lentiviral particles having scrambled RNA (Santa Cruz Biotechnology Inc.) in the presence of 5 μg/ml polybrene (Sigma-Aldrich) according to the manufacturer's instructions. After 18 hours, medium was removed, and cells were cultured in medium supplemented with 1 μg/ml puromycin to select for stable expression of shSP1 or scrambled RNA.
KBM5r cells (1×10^5) stably transduced with shSP1 (shSP1), or the respective control scrambled RNA lentiviral particles (scr), were then cultured for 72 hours in the presence of vehicle or ponatinib (po; 0.1 μM). Treated cells were tested for MFI of CD70 protein expression (FACS) (FIG. 1, q), CD70 (FIG. 1, r) and SP1 (Figure, 1 s) mRNA expression (qRT-PCR).
In a first experiment, 1×10^5 KBM5r cells were cultured in the presence of vehicle, ponatinib (po, 0.1 μM), lithium chloride (li, […]), or both in combination (po/li) for 24 h (FIG. 2, A-C). In a second experiment, 1×10^5 KBM5r cells were cultured in the presence of vehicle, ponatinib (po, 0.1 μM), R-Spondin 1 (R, 10 ng/ml), or both in combination (po/R) for 72 h (FIG. 2, D-E).

[7] = system: KBM5r cells; assay: miR-29 expression and anti-miR silencing in KBM5r cells (qRT-PCR); assay type: cell-based, human; conditions: imatinib 1 μM, nilotinib 1 μM, ponatinib 0.1 μM; 72 h
Protocol: MicroRNA concentrations were measured using TaqMan miRNA Assays for miR-29a, miR-29b, miR-29c, or RNU48 (Applied Biosystems), and qRT-PCR results were normalized to RNU48 expression.
48 h after transfection, cells were harvested and subjected to total RNA extraction and cDNA synthesis for qRT-PCR.

[8] = system: pancreatic tumor-initiating cells; conditions: cited from earlier work
[9] = system: xenograft models of breast, lung, pancreatic, and colon cancer; conditions: in vivo; cited from earlier work

Question: What does the source list for `COc1ccc(C2(CNC(=O)c3ccc(NC(=O)c4ccco4)cc3)CCOCC2)cc1` [JW55, N-(4-(((4-(4-methoxyphenyl)tetrahydro-2H-pyran-4-yl)methyl)carbamoyl)phenyl)furan-2-carboxamide]?
Answer: tamoxifen-induced polyposis formation [1]: reduced; canonical WNT signaling ([2]; cells with mutations in APC locus or an allele of β-catenin): inhibited canonical WNT signaling; AXIN2 and β-catenin levels [2]: stabilization of AXIN2, a member of the β-catenin destruction complex, followed by increased degradation of β-catenin; XWNT8-induced axis duplication [3]: reduced XWNT8-induced axis duplication

Question: For `O=c1nc(-c2ccc(C(F)(F)F)cc2)[nH]c2c1CSCC2` [XAV939], which “growth of DLD-1 cancer cells” value [4] is on record?
Answer: inhibits growth

Question: And the “WNT-stimulated accumulation of β-catenin” value [5]?
Answer: blocks WNT-stimulated accumulation of β-catenin

Question: For `[Cl-].[Li+]` [lithium chloride], which “TKI-mediated changes in CD70, SP1, DNMT1 mRNA expression” value ([6]; lithium chloride 10 μM with ponatinib 0.1 μM, 24 h) is on record?
Answer: restored TKI-mediated changes in gene expression

Question: For `Cc1cn(-c2cc(NC(=O)c3ccc(C)c(Nc4nccc(-c5cccnc5)n4)c3)cc(C(F)(F)F)c2)cn1` [nilotinib], which “miR-29a, miR-29b, miR-29c expression” value [7] is on record?
Answer: did not affect miR-29s

B1: R-Spondin 1: specific Wnt activator (protein, UniProt Q2MKA7 21-263, looked up)
R-spondin-1: SRGIKGKRQRRISAEGSQACAKGCELCSEVNGCLKCSPKLFILLERNDIRQVGVCLPSCPPGYFDARNPDMNKCIKCKIEHCEACFSHNFCTKCKEGLYLHKGRCYPACPEGSSAANGTMECSSPAQCEMSEWSPWGPCSKKQQLCGFRRGSEERTRRVLHAPVGDHAACSDTKETRRCTVRRVPCPEGQKRRKGGQGRRENANRNLARKESKEAGAGSRRRKGQQQQQQQGTVGPLTSAGPA
Question: For B1, which “TKI-mediated changes in CD70, SP1, DNMT1 mRNA expression” value ([6]; R-Spondin 1 10 ng/ml with ponatinib 0.1 μM, 72 h) is on record?
Answer: restored TKI-mediated changes in gene expression

B2: OMP-18R5: monoclonal antibody that targets the Frizzled receptors to block association with WNT ligands (antibody, chains of the INN, looked up, V domains shown)
VH: EVQLVESGGGLVQPGGSLRLSCAASGFTFSHYTLSWVRQAPGKGLEWVSVISGDGSYTYYADSVKGRFTISSDNSKNTLYLQMNSLRAEDTAVYYCARNFIKYVFANWGQGTLVTVSS
VL: DIELTQPPSVSVAPGQTARISCSGDNIGSFYVHWYQQKPGQAPVLVIYDKSNRPSGIPERFSGSNSGNTATLTISGTQAEDEADYYCQSYANTLSLVFGGGTKLTVL
Question: What does the source list for B2?
Answer: capabilities of pancreatic tumor-initiating cells [8]: potently block the capabilities of pancreatic tumor-initiating cells; interaction with standard-of-care treatment [9]: synergized with standard-of-care treatment; tumor growth [9]: significant inhibition of tumor growth
